Legend:
cultured neurons = details: oxygen/glucose deprivation; concentration range 10 nM-1 μM
Excerpt: A second experimental system was used where oxygen/glucose deprivation induced cell death in cultured neurons (i.e. an in vitro model of stroke).

MIP-1α = assay: LPS-stimulated J774 macrophages: MIP-1α production; format: cell-based
Excerpt: In in vitro studies, J774 macrophages were exposed to bacterial lipopolysaccharide (LPS), to induce pro-inflammatory mediator production and cytotoxicity. […] This assay (the LPS-stimulated macrophage) represents an in vitro model of an inflammatory situation. Agents that block inflammatory mediator production in this assay are expected to have anti-inflammatory or immunosuppressive effects in inflammatory or immune diseases.
The half-maximal inhibitory effect (in μM) of various PJ compounds was assessed under a variety of conditions in immunostimulated J774 macrophages and in peroxynitrite-stimulated thymocytes. Macrophages or thymocytes were first treated with a chosen PJ compound for 30 min at a concentration ranging from 0.1 to 30 μM. The cells were then immunostimulated with LPS (10 μg/ml) or treated with peroxynitrite (30 μM). MIP production in the macrophages was measured at 3 h, TNF and nitric oxide were measured at 24 h, cell viability in the macrophages were measured at 24 h. PARS activation and cell death in thymocytes were measured at 6 h. Measurements of mediator production, PARS activation and cell death were essentially as described in Németh, et al., Eur J Pharmacol 339:215-221, 1997 and Virág and Szabó, Br J Pharmacol, 126: 769-777, 1999. Results in Table 2 are shown as EC50 values (half maximal inhibition of mediator production or restoration of cell viability; in μM): [mean±SEM of n=3-6 determinations].

[1] = tested on: streptozotocin diabetic mice; assay: Streptozotocin induced diabetes: vascular function, glucose, insulin, immunostaining; format: in vivo, mouse
Protocol: Male Balb/c mice were treated intraperitoneally (i.p.) with streptozotocin (240 mg/kg dissolved in citrate buffer) or vehicle (citrate buffer). Blood glucose was then monitored weekly over 8 weeks using a one-touch blood glucose meter (Lifescan). Hyperglycemia was defined as non-fasting blood glucose level higher than 200 mg/dL. Total glycated hemoglobin (GHb) content of blood samples was measured using a commercially available kit (Sigma Diagnostics) according to manufacturers instructions. […] The optical density of the two fractions was measured by spectrophotometry at 415 nm and the per cent glycated hemoglobin content was calculated as follows: GHb (%)=[…]/(E+[…]). Samples of pancreas were removed on week 8 and weighed before being placed into 6 ml of acid ethanol (23:7:0.45, ethanol:dH2O:HCl) and homogenized. The pancreas was incubated for 72 h at 4° C. before being centrifuged. The insulin content of the supernatant was then determined using a commercially available ELISA kit (Alpco). […] At 8 weeks, blood was taken for measurement of glycosylated hemoglobin levels, pancreata taken for measurements of pancreatic insulin content, and thoracic aortae taken for determination of endothelium-dependent relaxant reactivity. There was no difference in the degree of hyperglycemia and glycosylated hemoglobin, and in the degree of pancreatic insulin loss between vehicle and PJ34 treated diabetic animals. […] Sections were treated with 0.3% hydrogen peroxide for 15 min to block endogenous peroxidase activity and then rinsed briefly in PBS. Non-specific binding was blocked by incubating the slides for 1 h in PBS containing 2% horse serum. To detect poly(ADP-ribose), a routine histochemical procedure was applied, as previously described (Scott et al., Ann. Neurol. 45: 120-124, 1999) with minor modifications, as follows: Mouse monoclonal anti-poly(ADP-ribose) antibody (Alexis, San Diego, Calif.) and isotype-matched control antibody were applied in a dilution of 1:100 for 2 h at room temperature. Following extensive washing (5×5 min) with PBS, immunoreactivity was detected with a biotinylated goat anti-rabbit secondary antibody and the avidin-biotin-peroxidase complex (ABC), both supplied in the Vector Elite kit (Vector Laboratories, Burlingame, Calif.). Color was developed using Ni-DAB substrate (95 mg diaminobenzidine, 1.6 g NaCl, 2 g nickel sulfate in 200 ml 0.1 M acetate buffer). Sections were then counterstained with nuclear fast red, dehydrated and mounted in Permount. Photomicrographs were taken with a Zeiss Axiolab microscope equipped with a Fuji HC-300C digital camera. Detection of nitrotyrosine in aorta rings was carried out as described above for poly(ADP-ribose) staining except that rabbit anti-nitrotyrosine polyclonal antibody was used as the primary antibody. […] Cells were rehydrated in PBS, blocked in 2% goat serum (1 h, room temperature) and incubated in anti-nitrotyrosine (1:100 dilution) for 2 h. Subsequent steps of the staining procedure were identical to the tissue staining. Color was developed with Vector Red substrate, and slides were mounted in glycerol.

[2] = 10 mg/kg per os once a day from week 1, at 8 weeks

CN(C)CC(=O)Nc1ccc2[nH]c(=O)c3ccccc3c2c1 [PJ34, N-(6-oxo-5,6-dihydro-phenanthridin-2-yl)-N,N-dimethylacetamide]
cytoprotection (cultured neurons): up to 70%
production of the chemokine MIP-1α (in words) (MIP-1α; J774 macrophages exposed to LPS): inhibited
EC50 (MIP-1α; Mus musculus, J774, LPS 10 μg/ml, 30 min pretreatment 0.1 to 30 μM, measured at 3 h, mean±SEM n=3-6, read-out: Inhibition of MIP-1α (J774)): 10.2 ± 1.4 µM
degree of hyperglycemia (blood glucose) vs vehicle ([1]; 10 mg/kg per os once a day from week 1, 0-8 weeks): no difference
degree of pancreatic insulin loss vs vehicle [1, 2]: no difference
glycosylated hemoglobin vs vehicle [1, 2]: no difference
PARS activation (poly(ADP-ribose) staining) in diabetic endothelium ([1]; 8 weeks): abolished
tyrosine nitration (nitrotyrosine immunostaining) in diabetic rings ([1]; 8 weeks): not affected
vascular reactivity of normal (non-diabetic) mice ([1]; chronic treatment 8 weeks, same regimen, not shown): did not affect
acetylcholine induced endothelium-dependent relaxant ability of thoracic aortic rings ([1]; diabetic animals at 8 weeks, 10 mg/kg per os daily, P<0.01 vs vehicle): normalized

From patent US6531464B1, “Methods for the treatment of neurodegenerative disorders using substituted phenanthridinone derivatives” (Inotek Pharmaceutical Corporation, priority 1999, dated 2003)
